pKi: −log10 of the molar value.

The first assay has as its target T1, Caspase-1 (Homo sapiens, UniProt P29466).
T1 sequence (P29466 whole entry): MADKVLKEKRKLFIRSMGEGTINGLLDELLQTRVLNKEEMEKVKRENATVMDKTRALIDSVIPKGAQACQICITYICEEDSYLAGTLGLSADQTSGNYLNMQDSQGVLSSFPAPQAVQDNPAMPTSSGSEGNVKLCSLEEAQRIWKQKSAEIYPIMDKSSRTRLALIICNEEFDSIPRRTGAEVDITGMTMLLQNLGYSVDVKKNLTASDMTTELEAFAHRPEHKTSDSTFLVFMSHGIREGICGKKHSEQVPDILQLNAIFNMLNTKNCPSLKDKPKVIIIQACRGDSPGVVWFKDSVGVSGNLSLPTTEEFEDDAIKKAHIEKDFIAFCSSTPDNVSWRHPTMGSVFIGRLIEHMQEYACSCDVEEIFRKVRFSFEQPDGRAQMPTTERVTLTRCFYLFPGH
Nature of the assay: Binding affinity against IL-1 beta converting enzyme.
Take `CC(C)[C@H](NC(=O)OCc1ccccc1)C(=O)N[C@@H](C)C(=O)N[C@@H](C=O)CC(=O)O`: the pKi (usually the Ki on a negative log10 scale, so that one unit is a factor of ten) was 7.82. Turning to `CC(C)[C@H](NC(=O)OCc1ccccc1)C(=O)N[C@@H](C)C(=O)N[C@H](C=O)CC(=O)O`, the pKi was 7.82.

Another assay concerns the target T2, Caspase-1 (Homo sapiens) (UniProt P29466).
T2 sequence (whole entry): T1 sequence (P29466 whole entry)
Nature of the assay: Inhibition of IL-1 beta converting enzyme.
In the case of `O=C(O)C[C@@H](CCOC(=O)c1c(Cl)cccc1Cl)NC(=O)OCc1ccccc1`, the k obs / 1 was under 1000 M⁻¹ s⁻¹. Still for that read-out and setting: the figure for `COC(=O)NCC(=O)N[C@@H](CC(=O)O)C(=O)COC(=O)c1c(Cl)cccc1Cl` is under 1000 M⁻¹ s⁻¹; for `O=C(N[C@@H](Cc1nnn[nH]1)C(=O)COC(=O)c1c(Cl)cccc1Cl)OCc1ccccc1` it is under 1000 M⁻¹ s⁻¹; for `C[C@H](NC(=O)OCc1ccccc1)C(=O)N[C@@H](C)C(=O)N[C@@H](CC(=O)O)C(=O)COC(=O)c1c(Cl)cccc1Cl` it is 116000 M⁻¹ s⁻¹. Still for that read-out and setting: the figure for `C[C@H](NC(=O)[C@@H](C)NC(=O)OCc1ccccc1)C(=O)N[C@@H](CC(=O)O)C(=O)COC(=O)c1c(Cl)cccc1Cl` is 10000 M⁻¹ s⁻¹. `COC(=O)N[C@@H](Cc1c[nH]cn1)C(=O)N[C@@H](CC(=O)O)C(=O)COC(=O)c1c(Cl)cccc1Cl` yielded a k obs / 1 of 2200 M⁻¹ s⁻¹. Molecule `O=C(O)C[C@@H](CC(=O)COC(=O)c1c(Cl)cccc1Cl)NC(=O)OCc1ccccc1` yielded a k obs / 1 of under 1000 M⁻¹ s⁻¹. Molecule `COC(=O)N[C@@H](C)C(=O)N[C@@H](CC(=O)O)C(=O)COC(=O)c1c(Cl)cccc1Cl` gave a k obs / 1 of 7000 M⁻¹ s⁻¹. On the same count and under the same terms, the figure for `O=C(O)C[C@H](OC(=O)OCc1ccccc1)C(=O)COC(=O)c1c(Cl)cccc1Cl` is under 1000 M⁻¹ s⁻¹; for `C[C@@H](NC(=O)OCc1ccccc1)C(=O)N[C@@H](CC(=O)O)C(=O)COC(=O)c1c(Cl)cccc1Cl` it is under 1000 M⁻¹ s⁻¹. The molecule `COC(=O)N[C@H](C(=O)N[C@@H](CC(=O)O)C(=O)COC(=O)c1c(Cl)cccc1Cl)C(C)C` gave a k obs / 1 of 4900 M⁻¹ s⁻¹.

The molecule `O=C(O)C[C@H](NC(=O)OCc1ccccc1)C(=O)CSc1c(Cl)cccc1Cl` yielded a k obs / 1 of under 1000 M⁻¹ s⁻¹. `O=C(O)C[C@@H](C(=O)COC(=O)c1c(Cl)cccc1Cl)C(=O)NCCc1ccccc1` came in with a k obs / 1 of under 1000 M⁻¹ s⁻¹.

Molecule `C[C@H](C(=O)O)[C@H](NC(=O)OCc1ccccc1)C(=O)COC(=O)c1c(Cl)cccc1Cl` gave a k obs / 1 of under 1000 M⁻¹ s⁻¹.

`CN(C(=O)OCc1ccccc1)[C@@H](CC(=O)O)C(=O)COC(=O)c1c(Cl)cccc1Cl` returned a k obs / 1 of under 1000 M⁻¹ s⁻¹. For `C[C@@H](C(=O)O)[C@H](NC(=O)OCc1ccccc1)C(=O)COC(=O)c1c(Cl)cccc1Cl`, the k obs / 1 is under 1000 M⁻¹ s⁻¹.

`O=C(O)C[C@H](NC(=O)OCc1ccccc1)C(O)COC(=O)c1c(Cl)cccc1Cl` (stereo partly specified) had a k obs / 1 of under 1000 M⁻¹ s⁻¹. `O=C(O)CCC[C@H](NC(=O)OCc1ccccc1)C(=O)COC(=O)c1c(Cl)cccc1Cl` registered a k obs / 1 of under 1000 M⁻¹ s⁻¹. The same measure, in the same setting: with `CC(C)[C@H](NC(=O)OCc1ccccc1)C(=O)N[C@@H](CC(=O)O)C(=O)COC(=O)c1c(Cl)cccc1Cl` the figure was 41000 M⁻¹ s⁻¹. Still for that read-out and setting: with `C[C@H](NC(=O)[C@H](Cc1ccccc1)NC(=O)OCc1ccccc1)C(=O)N[C@@H](CC(=O)O)C(=O)COC(=O)c1c(Cl)cccc1Cl` the figure was 233000 M⁻¹ s⁻¹; with `O=C(O)C[C@H](NC(=O)OCc1ccccc1)C(=O)COc1c(Cl)cccc1Cl`, under 1000 M⁻¹ s⁻¹; with `O=C(O)C[C@H](NC(=O)OCc1ccccc1)C(=O)COC(=O)c1c(Cl)cccc1Cl`, 7400 M⁻¹ s⁻¹. Same read-out and setting: with `COC(=O)N[C@@H](Cc1cccs1)C(=O)N[C@@H](CC(=O)O)C(=O)COC(=O)c1c(Cl)cccc1Cl` the figure was 2500 M⁻¹ s⁻¹.

A further assay concerns the target T2, Caspase-1 (Homo sapiens). Nature of the assay: k obs/[I] against Interleukin-1-beta Converting enzyme (ICE) was determined.
Molecule `O=C(O)CC[C@H](NC(=O)OCc1ccccc1)C(=O)COC(=O)c1c(Cl)cccc1Cl` gave a k obs / 1 of under 1000 M⁻¹ s⁻¹.

Source of the values: ChEMBL document CHEMBL1149962, “Structural and stereochemical requirements of time-dependent inactivators of the interleukin-1 converting enzyme” (Bioorg Med Chem Lett, 1995).
